The text below walks through data of patent publication US20230405031A1, “METHODS AND COMPOSITIONS RELATED TO RECEPTOR-MEDIATED GLUCOSE SENSING” (Ohio State Innovation Foundation, priority 2020, published 2023).

The subject of assay [1] is muscle fibers. The assay is described as follows: Oxygen flux in permeabilized muscle fibers (high resolution respirometry). Set-up: species or system mice. As to conditions: after malate+pyruvate and ADP, data not shown. The source says: FIGS. 4A-4H show STRs regulate mitochondrial function and exercise capacity. (4A) Oxygen flux in muscle fibers in response to malate+pyruvate and ADP. […] (4B) Oxygen consumption rate (OCR) in differentiated myoblasts. Oligomycin (Comp V inhibition), FCCP (Carbonyl cyanide-4 (trifluoromethoxy) phenylhydrazone; uncoupler), rotenone (Comp I inhibition) (n=5/group). (4C) Quantitative analysis of lactate, ATP and ADP in gastrocnemius following 5-hours fasting (n=9-11/group). (4D) Succinate dehydrogenase staining in muscle sections. Arrows show SDH staining in gastrocnemius n=6/group). (4E) Immunoblotting of mitochondrial complex proteins with quantitation (n=6/group). (4F) Exercise endurance in mice at […] grade and 20 m/min (n=8/group). (4G) Oxygen consumption and (4H) respiratory exchange ratio (RER) under steady state conditions (plateaued values for at least 10 min) before exhaustion in mice subjected to a submaximal exercise bout as in (4F). Student's t-test, p value for (4B-4H).
ADPr is converted to PRPP, which can be used either for NAD^+ regeneration (salvage pathway), or for nucleotide synthesis (FIG. 2F), showing that ADPr can be a metabolic link between NAD^+ and purine/pyrimidine metabolism. Therefore, it was reasoned that the unprecedented depletion of ADPr in T1R2-KO muscles can be due to reduced NAD-consumption and/or increased PRPP utilization for nucleotide biosynthesis. […]

Assay [2] deals with T1, SIRT2 (Homo sapiens, UniProt Q8IXJ6).
T1 sequence (Q8IXJ6 1-389): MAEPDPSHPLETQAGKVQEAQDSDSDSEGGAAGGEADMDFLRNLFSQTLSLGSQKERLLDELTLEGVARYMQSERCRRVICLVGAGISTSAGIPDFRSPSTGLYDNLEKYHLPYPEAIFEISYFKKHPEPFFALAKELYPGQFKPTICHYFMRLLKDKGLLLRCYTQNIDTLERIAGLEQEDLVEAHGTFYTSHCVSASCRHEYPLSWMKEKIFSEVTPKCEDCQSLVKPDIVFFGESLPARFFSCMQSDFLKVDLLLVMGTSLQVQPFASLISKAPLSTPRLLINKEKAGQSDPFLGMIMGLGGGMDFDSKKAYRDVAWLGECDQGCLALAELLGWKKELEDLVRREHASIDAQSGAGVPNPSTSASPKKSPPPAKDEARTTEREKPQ
As to conditions: read-out: Km (affinity for NAD+); cited from earlier work.

The target of assay [3] is T2, SIRT1 (Homo sapiens, UniProt Q96EB6).
T2 sequence (Q96EB6 1-747): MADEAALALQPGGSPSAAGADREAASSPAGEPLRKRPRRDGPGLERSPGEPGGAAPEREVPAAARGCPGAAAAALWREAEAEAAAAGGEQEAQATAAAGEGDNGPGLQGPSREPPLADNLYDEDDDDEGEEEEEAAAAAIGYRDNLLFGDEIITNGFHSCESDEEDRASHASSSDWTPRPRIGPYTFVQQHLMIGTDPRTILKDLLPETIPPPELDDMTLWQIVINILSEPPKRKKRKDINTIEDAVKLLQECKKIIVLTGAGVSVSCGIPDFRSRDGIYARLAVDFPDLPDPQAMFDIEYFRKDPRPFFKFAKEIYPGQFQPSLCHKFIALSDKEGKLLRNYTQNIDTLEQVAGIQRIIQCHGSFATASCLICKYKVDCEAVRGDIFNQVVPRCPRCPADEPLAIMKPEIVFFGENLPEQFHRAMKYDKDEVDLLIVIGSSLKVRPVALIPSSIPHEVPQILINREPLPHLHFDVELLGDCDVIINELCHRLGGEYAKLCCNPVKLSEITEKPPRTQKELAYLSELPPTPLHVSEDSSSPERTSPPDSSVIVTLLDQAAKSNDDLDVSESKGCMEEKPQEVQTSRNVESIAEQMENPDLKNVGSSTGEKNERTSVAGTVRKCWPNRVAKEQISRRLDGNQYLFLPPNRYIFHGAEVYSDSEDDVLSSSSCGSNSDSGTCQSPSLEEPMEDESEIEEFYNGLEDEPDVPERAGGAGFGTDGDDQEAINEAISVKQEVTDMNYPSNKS
As to conditions: read-out: Km (affinity for NAD+); cited from earlier work.

The subject of assay [4] is C2C12 cells. The assay is described as follows: NAD levels in differentiated C2C12 cells cultured at high or low glucose. The format is cell-based. As to conditions: 20 mM added during the last 6 h to low-glucose (5 mM) cultured differentiated C2C12 cells, 54 h culture. The method, then:
FIGS. 8A-8E show STR signaling involves ERK2 and SIRT1 activation. (8A) ERK1/2 phosphorylation in gastrocnemius from fed mice. Quantitation includes both ERK1 and ERK2 bands (n=6/group). (8B-8C) ERK2 phosphorylation in response to bilateral intramuscular injection of either sucralose or 3-OMG (right gastroc) or vehicle (left gastroc) in anesthetized mice after an overnight fast (n=8/group). (8D) NAD levels in C2C12 cells culture in high (black dots) or low (blue dots) glucose for 54 h. In select cells, equal molarity (20 mM) of glucose (Glu) or 3-OMG was added during the last 6 h (ANOVA). (8E) PGC1a acetylation in gastrocnemius from 5 hours fasted mice using immunoprecipitation (IP) with anti-PGC1a (Millipore ST1202) and then immunoblotting (IB) with anti-PGC1a and anti-acetyl-lysine (CST #9441). IB of PGC1a is shown in input. Student's T-test, p value. Determination of downstream effectors of NAD^+-SIRT axis. To shed light on the link between STR activation and NAD regulation, differentiated C2C12 cells were cultured at high (25 mM) or low (5 mM) glucose for 54 hours and observed an anticipated increase in NAD levels during the low-glucose condition (FIG. 8D) (18, 69). […] Thus, it appears that a STR-mediated regulation of NAD^+-SIRT axis is sufficient to account for key muscle adaptations in T1R2-KO mice. […]

Assay [5] has as its system ERK2 phosphorylation. The assay is described as follows: ERK2 phosphorylation in gastrocnemius after intramuscular injection of STR ligands. It is filed as in vivo. As to conditions: intra-muscular injection, anesthetized mice after overnight fast, WT vs T1R2-KO, vs vehicle in contralateral muscle. The method, then: FIGS. 8A-8E show STR signaling involves ERK2 and SIRT1 activation. (8A) ERK1/2 phosphorylation in gastrocnemius from fed mice. Quantitation includes both ERK1 and ERK2 bands (n=6/group). (8B-8C) ERK2 phosphorylation in response to bilateral intramuscular injection of either sucralose or 3-OMG (right gastroc) or vehicle (left gastroc) in anesthetized mice after an overnight fast (n=8/group). (8D) NAD levels in C2C12 cells culture in high (black dots) or low (blue dots) glucose for 54 h. In select cells, equal molarity (20 mM) of glucose (Glu) or 3-OMG was added during the last 6 h (ANOVA). (8E) PGC1a acetylation in gastrocnemius from 5 hours fasted mice using immunoprecipitation (IP) with anti-PGC1a (Millipore ST1202) and then immunoblotting (IB) with anti-PGC1a and anti-acetyl-lysine (CST #9441). IB of PGC1a is shown in input. Student's T-test, p value. Elucidation of signaling pathway leading to PARP1 regulation and NAD^+ bioavailability. The reduced PARP1 activity in T1R2-KO muscles correlates with substantial increases in NAD^+ levels (FIGS. 2C and 3B). STR belong to the Gq family of GPCRs and, in various tissues, activate phospholipase C (PLC)-mediated signaling cascades (9, 62) (FIG. 7). PARP1 is mainly regulated in response to DNA damage (63), but it was reasoned that a downstream effector(s) of PLC-dependent pathway may regulate PARP1 in skeletal muscle. […]

The term Km denotes the substrate concentration at which the rate is half of its maximum.

Consider antimycin A, for which, in assay [1], the Oxygen flux result is “suppressed oxygen flux”.

`NC(=O)c1ccc[n+]([C@@H]2O[C@H](COP(=O)([O-])OP(=O)(O)OC[C@H]3O[C@@H](n4cnc5c(N)ncnc54)[C@H](O)[C@@H]3O)[C@@H](O)[C@H]2O)c1` [NAD^+, Nicotinamide adenine dinucleotide]: the Km in assay [2] is 83 µM; in assay [3], 95 µM.

On to `CO[C@@H]([C@H](O)[C@H](O)CO)[C@@H](O)C=O` [3-OMG, 3-O-methylglucose], for which, in assay [4], the NAD levels result was “caused a significant drop in NAD, although to a lesser extent than 20 mM glucose”. Further, the ERK2 phosphorylation result in assay [5] is listed as “activated ERK2 phosphorylation in WT, but not in T1R2-KO muscles”.

For the molecule `OC[C@H]1O[C@H](O[C@]2(CCl)O[C@H](CCl)[C@@H](O)[C@@H]2O)[C@H](O)[C@@H](O)[C@H]1Cl` [sucralose], the ERK2 phosphorylation entry in assay [5] is listed as “activated ERK2 phosphorylation in WT, but not in T1R2-KO muscles”.
